Reference: patent publication US20230263822A1, “MODULATION OF FACTOR 11 EXPRESSION” (Ionis Pharmaceuticals, Inc., priority 2008, published 2023)
Strand notation (5' to 3'): a small letter for the sugar, then the base; units joined by * are phosphorothioate-linked, units joined directly phosphodiester-linked; [ ] holds rarer units or linkages, { } end groups; capitals alone tell only the bases. e = 2'-O-(2-methoxyethyl) (MOE); [5mC] = 5-methylcytosine; d = 2'-deoxy (DNA)

What was measured:
[1] = parameters: species or system Sprague-Dawley rats; conditions: rat, in vivo, sc, 20 mg/kg
Method: The concentration of the full-length oligonucleotide as well as the total oligonucleotide concentration (including the degraded form) was measured. The method used is a modification of previously published methods (Leeds et al., 1996; Geary et al., 1999) which consist of a phenol-chloroform (liquid-liquid) extraction followed by a solid phase extraction. An internal standard (ISIS 355868, a 27-mer 2′-O-methoxyethyl modified phosphorothioate oligonucleotide, […], designated herein as SEQ ID NO: 270) was added prior to extraction. […] The results are presented in Tables 91 and 92, expressed as μg/g liver or kidney tissue. Half-lives were then calculated using WinNonlin software ([…]).

[2] = Tolerability in Sprague-Dawley rats: hematology assays (Example 42); conditions: 50 mg/kg s.c. twice per week for 6 weeks, blood
[3] = Tolerability in Sprague-Dawley rats: kidney function (Example 42); conditions: 50 mg/kg s.c. twice per week for 6 weeks; for BUN / Creatinine: plasma
[4] = Tolerability in Sprague-Dawley rats: liver function (Example 42); conditions: 50 mg/kg s.c. twice per week for 6 weeks, plasma
[5] = Tolerability in Sprague-Dawley rats: body weight and organ weight (Example 42); conditions: 50 mg/kg s.c. twice per week for 6 weeks; for Change in Kidney weight / Change in Liver weight / Change in Spleen weight: end of study; for Change in body weight: percent increase over the PBS control weight
human Factor 11 mRNA = assay: Dose-dependent inhibition of human Factor 11 in HepG2 cells, electroporation 123.46-10,000 nM (Example 31); type: cell-based
Summary of the method: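 HepG2 cells were electroporated with antisense oligonucleotide at 123.46, 370.37, 1,111.11, 3,333.33 and 10,000 nM and harvested about 16 hours later. Factor 11 mRNA was quantified by qRT-PCR and normalised to total RNA (RIBOGREEN). Inhibition is expressed relative to untreated cells.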

platelet aggregation = assay: Platelet aggregation assay, ADP and/or collagen (Example 45); type: in vivo, cynomolgus monkeys; conditions: escalating dose regimen
Method: (§1) Groups, each consisting of two male and three female monkeys, were injected subcutaneously with ISIS 416838, ISIS 416850, ISIS 416858, ISIS 416864, or ISIS 417002 in escalating doses. Antisense oligonucleotide was administered to the monkeys at 5 mg/kg three times per a week for week 1; 5 mg/kg twice per week for weeks 2 and 3; 10 mg/kg three times per week for week 4; 10 mg/kg twice per week for weeks 5 and 6; 25 mg/kg three times per week for week 7; and 25 mg/kg twice per week for weeks 8, 9, 10, 11, and 12. One control group, consisting of two male and three female monkeys, was injected subcutaneously with PBS according to the same dosing regimen. An additional experimental group, consisting of two male and three female monkeys, was injected subcutaneously with ISIS 416850 in a chronic, lower dose regimen. Antisense oligonucleotide was administered to the monkeys at 5 mg/kg three times per week for week 1; 5 mg/kg twice per week for week 2 and 3; 10 mg/kg three times per week for week 4; and 10 mg/kg twice per week for weeks 5 to 12. Body weights were measured weekly. Blood samples were collected 14 days and 5 days before the start of treatment and subsequently once per week for Factor 11 protein activity analysis in plasma, fibrinogen measurement, PT and aPTT measurements, bleeding times, and measurement of various hematologic factors. On day 85, the monkeys were euthanized by exsanguination while under deep anesthesia, and organs harvested for further analysis.
Platelet aggregation was initiated by adding 1 mmol/L ADP and/or 3 μg collagen (depending on the collection day, as outlined in Table 121) to plasma samples, and was allowed to proceed for 10 minutes. Aggregation was characterized by recording the change in the electrical resistance or impedance and the change in the initial slope of aggregation after platelet shape change. The aggregation test was performed twice per sample on each collection day and the average value was taken. The ISIS oligonucleotide, ISIS 416850, given with the chronic dose regimen is distinguished from the other oligonucleotides with an asterisk (*).

fibrinogen = assay: Fibrinogen assay (Example 45); type: in vivo, cynomolgus monkeys; conditions: plasma, escalating dose regimen
Method: as §1
Nine parts of fresh monkey plasma was collected into one part of trisodium citrate. The samples were evaluated of fibrinogen content using an ACL 9000 coagulation instrument (Instrumentation Laboratory, Italy). The ISIS oligonucleotide, ISIS 416850, given with the chronic dose regimen is distinguished from the other oligonucleotides with an asterisk (*).

413482 (antisense GGACGGCATTGGTGCACAGT; 5-10-5 MOE gapmer, further chemistry not given here) [compound 413482]
Half-life of ISIS oligonucleotides in the liver and kidney [1]: 20 days

412224 (antisense GCATTGGTGCACAGTTTCTG; 5-10-5 MOE gapmer, further chemistry not given here) [compound 412224]
Half-life of ISIS oligonucleotides in the liver and kidney [1]: 17 days

412223 (antisense ACAGTTTCTGGCAGGCCTCG; 5-10-5 MOE gapmer, further chemistry not given here) [compound 412223]
Half-life of ISIS oligonucleotides in the liver and kidney [1]: 22 days

ISIS 445522: 5-8-5 or 6-8-6 MOE microwalk gapmer (Table 44) (antisense eG*e[5mC]*eA*e[5mC]*eA*dG*dT*dT*dT*d[5mC]*dT*dG*dG*e[5mC]*eA*eG*eG*e[5mC])
HCT [2]: 47%
Lymphocyte [2]: 84%
Neutrophil [2]: 13%
Platelets [2]: 1334 nL⁻¹
RBC [2]: 7.7 pL⁻¹
WBC [2]: 18 nL⁻¹
hemoglobin [2]: 13.6 g/dL
monocytes [2]: 2.8%
BUN [3]: 25 mg/dL
Creatinine [3]: 0.4 mg/dL
Urine protein/creatinine ratio [3]: 6.4
ALT [4]: 240 IU/L
AST [4]: 138 IU/L
Albumin [4]: 3.6
Bilirubin [4]: 0.47 mg/dL
Change in Kidney weight [5]: +19%
Change in Liver weight [5]: +26%
Change in Spleen weight [5]: +184%
Change in body weight [5]: −13%

416856 (antisense GGCATTGGTGCACAGTTTCT; 5-10-5 gapmer, further chemistry not given here) [compound 416856]
Percent inhibition of Factor 11 mRNA at 123.47 nM (human Factor 11 mRNA; electroporation, 123.47 nM, approx. 16 hours, relative to untreated control cells): 12%
Percent inhibition of Factor 11 mRNA at 370.37 nM (human Factor 11 mRNA; electroporation, 370.37 nM, approx. 16 hours, relative to untreated control cells): 23%
Percent inhibition of Factor 11 mRNA at 1,111.11 nM (human Factor 11 mRNA; electroporation, 1,111.11 nM, approx. 16 hours, relative to untreated control cells): 35%
Percent inhibition of Factor 11 mRNA at 3,333.33 nM (human Factor 11 mRNA; electroporation, 3,333.33 nM, approx. 16 hours, relative to untreated control cells): 59%
Percent inhibition of Factor 11 mRNA at 10,000.0 nM (human Factor 11 mRNA; electroporation, 10,000.0 nM, approx. 16 hours, relative to untreated control cells): 83%
IC50 (human Factor 11 mRNA; electroporation, Factor 11 mRNA expression): 1.6 µM
Half-life of ISIS oligonucleotides in the liver and kidney [1]: 19 days

412225 (antisense GCAGCGGACGGCATTGGTGC; 5-10-5 MOE gapmer, further chemistry not given here) [compound 412225]
Half-life of ISIS oligonucleotides in the liver and kidney [1]: 21 days

ISIS 445531: 5-8-5 or 6-8-6 MOE microwalk gapmer (Table 44) (antisense eG*eG*e[5mC]*eA*eT*dT*dG*dG*dT*dG*d[5mC]*dA*d[5mC]*eA*eG*eT*eT*eT)
HCT [2]: 50%
Lymphocyte [2]: 86%
Neutrophil [2]: 10%
Platelets [2]: 1023 nL⁻¹
RBC [2]: 8.8 pL⁻¹
WBC [2]: 13 nL⁻¹
hemoglobin [2]: 14.8 g/dL
monocytes [2]: 2.8%
BUN [3]: 23 mg/dL
Creatinine [3]: 0.4 mg/dL
Urine protein/creatinine ratio [3]: 3.4
ALT [4]: 272 IU/L
AST [4]: 137 IU/L
Albumin [4]: 3.7
Bilirubin [4]: 0.12 mg/dL
Change in Kidney weight [5]: +4%
Change in Liver weight [5]: +17%
Change in Spleen weight [5]: +89%
Change in body weight [5]: −10%

ISIS 416838: MOE gapmer, nucleobases 1018 to 1042 of SEQ ID NO: 1 (Table 6) (antisense GCAACCGGGATGATGAGTGC; MOE gapmer, wing and gap sizes not given here)
platelet aggregation (platelet aggregation; day 15 (with ADP)): 15 Ohms
platelet aggregation (platelet aggregation; day 36 (with ADP)): 8 Ohms
platelet aggregation (platelet aggregation; day 43 (with collagen)): 16 Ohms
platelet aggregation (platelet aggregation; day 57 (with ADP)): 7 Ohms
platelet aggregation (platelet aggregation; day 64 (with collagen)): 13 Ohms
platelet aggregation (platelet aggregation; day 78 (with ADP)): 11 Ohms
platelet aggregation (platelet aggregation; day 85 (with ADP)): 15 Ohms
platelet aggregation (platelet aggregation; day 85 (with collagen)): 24 Ohms
platelet aggregation (platelet aggregation; day −5 (with collagen)): 15 Ohms
fibrinogen levels (fibrinogen; day 8): 209 mg/dL
fibrinogen levels (fibrinogen; day 15): 198 mg/dL
fibrinogen levels (fibrinogen; day 22): 183 mg/dL
fibrinogen levels (fibrinogen; day 29): 184 mg/dL
fibrinogen levels (fibrinogen; day 36): 182 mg/dL
fibrinogen levels (fibrinogen; day 43): 186 mg/dL
fibrinogen levels (fibrinogen; day 50): 216 mg/dL
fibrinogen levels (fibrinogen; day 57): 190 mg/dL
fibrinogen levels (fibrinogen; day 64): 190 mg/dL
fibrinogen levels (fibrinogen; day 71): 199 mg/dL
fibrinogen levels (fibrinogen; day 78): 189 mg/dL
fibrinogen levels (fibrinogen; day 85): 196 mg/dL
fibrinogen levels (fibrinogen; day −5): 205 mg/dL
fibrinogen levels (fibrinogen; day −14): 251 mg/dL
